In general, IC50 refers to the concentration needed to halve the response being measured. As a reminder, the EC50 is the concentration needed to bring the measured effect to its halfway point.

Here are results for 27 compounds from patent US20120115845A1, “THERAPEUTIC AGENTS” (priority 2007, published 2012).

SMILES strings stand for the structures.

For experiment [1], the target named is T1, human GHS receptor (Homo sapiens, UniProt Q92847). As to the kind of experiment: h bind IC50 (binding assay, Table 1). As to conditions: human receptor; Table 1.
T1 sequence (Q92847 whole entry): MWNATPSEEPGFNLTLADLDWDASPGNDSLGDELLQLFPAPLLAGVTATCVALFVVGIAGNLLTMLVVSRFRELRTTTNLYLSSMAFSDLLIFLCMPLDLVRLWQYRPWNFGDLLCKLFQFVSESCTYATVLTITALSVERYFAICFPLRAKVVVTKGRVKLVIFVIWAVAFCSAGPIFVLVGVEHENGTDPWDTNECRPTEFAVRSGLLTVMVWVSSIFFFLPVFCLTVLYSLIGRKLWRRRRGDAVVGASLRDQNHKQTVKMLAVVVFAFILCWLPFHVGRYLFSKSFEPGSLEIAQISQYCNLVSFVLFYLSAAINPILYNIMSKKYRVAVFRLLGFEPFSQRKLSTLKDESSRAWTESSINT
In experiment [2] the target is T1, human GHS receptor. The experiment in a line: Ghrelin IP1 agonist assay (IP1 HTRF). The experiment is classed as cell-based. More on the design: expressed in transfected cells; host or cells: HEK293s. As to conditions: for Emax: 2 h, agonist effect as % maximal effect of GHRP-6 (5 μM), read-out: h IP1 ag %; for EC50: HEK293s cells stably expressing human GHS receptor, 2 hours at 37° C., read-out: h IP1 ag EC50. In outline: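 Cells: HEK293s stably expressing human GHS receptor, in stimulation buffer containing 0.02% fatty acid free BSA.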

With `CN1CCN(CCCS(=O)(=O)c2ccc3nc(NC(=O)NC(=O)c4cc(-c5ccccn5)ccc4Cl)sc3c2)CC1` [Example 86, 2-Chloro-N-(6-(3-(4-methylpiperazin-1-yl)propylsulfonyl)benzothiazol-2-ylcarbamoyl)-5-(pyridin-2-yl)benzamide], the IC50 in experiment [1] came out at 0.7 nM. Besides, in experiment [2], the Emax was 0.64% and the EC50 is no less than 25000 nM.
On the same counts, the results for `CN1CCN(CCCS(=O)(=O)c2ccc3nc(NC(=O)NC(=O)c4cc(N5CCCC5)ccc4Cl)sc3c2)CC1` [Example 87, 2-Chloro-N-(6-(3-(4-methylpiperazin-1-yl)propylsulfonyl)benzothiazol-2-ylcarbamoyl)-5-(pyrrolidin-1-yl)benzamide] are 0.2 nM, 0.631% and 6560 nM.
Turning to `CN1CCN(CCCS(=O)(=O)c2ccc3nc(NC(=O)NC(=O)c4cc(-n5cccn5)ccc4Cl)sc3c2)CC1` [Example 88, 2-Chloro-N-(6-(3-(4-methylpiperazin-1-yl)propylsulfonyl)benzothiazol-2-ylcarbamoyl)-5-(1H-pyrazol-1-yl)benzamide], the IC50 in experiment [1] was 0.7 nM. Also, in experiment [2], the Emax amounted to 4.42% and the EC50 was no less than 25000 nM.
On the same counts, the results for `Cc1ccnn1-c1ccc(Cl)c(C(=O)NC(=O)Nc2nc3ccc(S(=O)(=O)CCCN4CCN(C)CC4)cc3s2)c1` [Example 90, 2-Chloro-5-(5-methyl-1H-pyrazol-1-yl)-N-(6-(3-(4-methylpiperazin-1-yl)propylsulfonyl)benzothiazol-2-ylcarbamoyl)benzamide] are 0.7 nM, 0% and greater than 25000 nM.
For `Cc1ccn(-c2ccc(Cl)c(C(=O)NC(=O)Nc3nc4ccc(S(=O)(=O)CCCN5CCN(C)CC5)cc4s3)c2)n1` [Example 91, 2-Chloro-5-(3-methyl-1H-pyrazol-1-yl)-N-(6-(3-(4-methylpiperazin-1-yl)propylsulfonyl)benzothiazol-2-ylcarbamoyl)benzamide] the same measures were 0.5 nM, 0.5% and 4820 nM.
Compound `CN1CCN(CCCS(=O)(=O)c2ccc3nc(NC(=O)NC(=O)c4cc(OS(C)(=O)=O)ccc4Cl)sc3c2)CC1` [Example 92, 4-Chloro-3-(6-(3-(4-methylpiperazin-1-yl)propylsulfonyl)benzothiazol-2-ylcarbamoylcarbamoyl)phenyl methanesulfonate] came in with a concentration for half-maximal inhibition (IC50) in experiment [1] of 10.1 nM. In experiment [2], the Emax turned out to be 4.99% and the EC50 is greater than 4870 nM.
On the same counts, the results for `CCOc1ccc(Cl)c(C(=O)NC(=O)Nc2nc3ccc(S(=O)(=O)CCCN4CCN(C)CC4)cc3s2)c1` [Example 93, 2-Chloro-5-ethoxy-N-(6-(3-(4-methylpiperazin-1-yl)propylsulfonyl)benzothiazol-2-ylcarbamoyl)benzamide] are 1.7 nM, 3.9% and 30.1 nM.
For `CN1CCN(CCCS(=O)(=O)c2ccc3nc(NC(=O)NC(=O)c4cc(C5CC5)ccc4Cl)sc3c2)CC1` [Example 94, 2-Chloro-5-cyclopropyl-N-(6-(3-(4-methylpiperazin-1-yl)propylsulfonyl)benzothiazol-2-ylcarbamoyl)benzamide] the same measures were 0.3 nM, 18.1% and 7.24 nM.
For `CN1CCN(CCCS(=O)(=O)c2ccc3nc(NC(=O)NC(=O)c4cc(-n5cncn5)ccc4Cl)sc3c2)CC1` [Example 95, 2-Chloro-N-(6-(3-(4-methylpiperazin-1-yl)propylsulfonyl)benzothiazol-2-ylcarbamoyl)-5-(1H-1,2,4-triazol-1-yl)benzamide] the same measures were 10.7 nM, 9.48% and 1160 nM.
Compound `CN1CCN(CCCS(=O)(=O)c2ccc3nc(NC(=O)NC(=O)c4cc(-c5cncs5)ccc4Cl)sc3c2)CC1` [Example 96, 2-Chloro-N-(6-(3-(4-methylpiperazin-1-yl)propylsulfonyl)benzothiazol-2-ylcarbamoyl)-5-(thiazol-5-yl)benzamide] came in with an IC50 in experiment [1] of 2.9 nM. In experiment [2], the Emax amounted to 13.1% and the EC50 stood at 432 nM.
For `CCN(CC)CCCS(=O)(=O)c1ccc2nc(NC(=O)NC(=O)c3cc(N4CCOCC4)ccc3Cl)sc2c1` [Example 97, 2-Chloro-N-(6-(3-(diethylamino)propylsulfonyl)benzothiazol-2-ylcarbamoyl)-5-morpholinobenzamide], the IC50 in experiment [1] worked out at 4.2 nM. In addition, in experiment [2], the Emax worked out at 8.13% and the EC50 worked out at 4.28 nM.
On the same counts, the results for `CCN(CC)CCCS(=O)(=O)c1ccc2nc(NC(=O)NC(=O)c3cc(-n4cccn4)ccc3Cl)sc2c1` [Example 98, 2-Chloro-N-(6-(3-(diethylamino)propylsulfonyl)benzothiazol-2-ylcarbamoyl)-5-(1H-pyrazol-1-yl)benzamide] are 8.7 nM, 9.19% and 1.5 nM.
For `CN1CCC(S(=O)(=O)c2ccc3nc(NC(=O)NC(=O)c4cc(-n5cccn5)ccc4Cl)sc3c2)CC1` [Example 100, 2-Chloro-N-(6-(1-methylpiperidin-4-ylsulfonyl)benzothiazol-2-ylcarbamoyl)-5-(1H-pyrazol-1-yl)benzamide] the same measures were 27.3 nM, 0% and no less than 20000 nM.
For `CS(=O)(=O)c1ccc2nc(NC(=O)NC(=O)c3c(Cl)cccc3Cl)sc2c1` [Example 101, 2,6-Dichloro-N-[(6-methylsulfonylbenzothiazol-2-yl)carbamoyl]benzamide] the same measures were 284 nM, 7.89% and 206 nM.
Consider `CS(=O)(=O)c1ccc2nc(NC(=O)NC(=O)c3ccccc3Cl)sc2c1` [Example 102, 2-Chloro-N-[(6-methylsulfonylbenzothiazol-2-yl)carbamoyl]benzamide], for which, in experiment [1], the IC50 worked out at 116 nM. Besides, in experiment [2], the Emax was 24.2% and the EC50 is 57.8 nM.
In turn, `CS(=O)(=O)c1ccc2nc(NC(=O)NC(=O)c3ccccc3Br)sc2c1` [Example 103, 2-Bromo-N-[(6-methylsulfonylbenzothiazol-2-yl)carbamoyl]benzamide] displayed an IC50 in experiment [1] of 239 nM. Further, in experiment [2], the Emax was 20.5% and the EC50 turned out to be 454 nM.
`CS(=O)(=O)c1ccc2nc(NC(=O)NC(=O)c3ccccc3[N+](=O)[O-])sc2c1` [Example 104, N-[(6-Methylsulfonylbenzothiazol-2-yl)carbamoyl]-2-nitro-benzamide] came in with an IC50 in experiment [1] of 742 nM. Moreover, in experiment [2], the Emax stood at 15.1% and the EC50 is 772 nM.
For `CS(=O)(=O)c1ccc2nc(NC(=O)NC(=O)c3ccccc3-c3ccccc3)sc2c1` [Example 105, N-[(6-Methylsulfonylbenzothiazol-2-yl)carbamoyl]-2-phenyl-benzamide], in experiment [1], the IC50 was 215 nM. Moreover, in experiment [2], the Emax was determined as 39.4% and the EC50 was 98.6 nM.
In the case of `CS(=O)(=O)c1ccc2nc(NC(=O)NC(=O)c3c(F)cccc3Cl)sc2c1` [Example 106, 2-Chloro-6-fluoro-N-[(6-methylsulfonylbenzothiazol-2-yl)carbamoyl]benzamide], in experiment [1], the IC50 was found to be 216 nM. In experiment [2], the Emax stood at 12.9% and the EC50 stood at 32.8 nM.
In the case of `CS(=O)(=O)c1ccc2nc(NC(=O)NC(=O)c3ccc(F)cc3Cl)sc2c1` [Example 107, 2-Chloro-4-fluoro-N-[(6-methylsulfonylbenzothiazol-2-yl)carbamoyl]benzamide], the IC50 in experiment [1] came out at 306 nM. Besides, in experiment [2], the Emax turned out to be 19.3% and the EC50 is 27.6 nM.
For `CS(=O)(=O)c1ccc2nc(NC(=O)NC(=O)c3ccccc3F)sc2c1` [Example 108, 2-Fluoro-N-[(6-methylsulfonylbenzothiazol-2-yl)carbamoyl]benzamide] the same measures were 1640 nM, 8.69% and 24300 nM.
On the same counts, the results for `CS(=O)(=O)c1ccc2nc(NC(=O)NC(=O)c3cccc(F)c3Cl)sc2c1` [Example 110, 2-Chloro-3-fluoro-N-[(6-methylsulfonylbenzothiazol-2-yl)carbamoyl]benzamide] are 392 nM, 15.8% and 91.7 nM.
For `COc1ccc(C(=O)NC(=O)Nc2nc3ccc(S(C)(=O)=O)cc3s2)c(Cl)c1OC` [Example 111, 2-Chloro-3,4-dimethoxy-N-[(6-methylsulfonylbenzothiazol-2-yl)carbamoyl]benzamide] the same measures were 1270 nM, 14.1% and 335 nM.
In experiment [1], `CS(=O)(=O)c1ccc(C(=O)NC(=O)Nc2nc3ccc(S(C)(=O)=O)cc3s2)c(Cl)c1` [Example 113, 2-Chloro-4-methylsulfonyl-N-[(6-methylsulfonylbenzothiazol-2-yl)carbamoyl]benzamide] returned an IC50 of 1660 nM. For the same compound, in experiment [2], the Emax was found to be 10.8% and the concentration giving a half-maximal response (EC50) stood at 1290 nM.
In turn, `CS(=O)(=O)c1ccc2nc(NC(=O)NC(=O)c3ccc(N4CCOCC4)cc3Cl)sc2c1` [Example 115, 2-Chloro-N-[(6-methylsulfonylbenzothiazol-2-yl)carbamoyl]-4-morpholin-4-yl-benzamide] gave a 50% inhibitory concentration (IC50) in experiment [1] of 63.4 nM. Besides, in experiment [2], the Emax was 9.95% and the EC50 was 2030 nM.
On the same counts, the results for `CS(=O)(=O)c1ccc2nc(NC(=O)NC(=O)c3ccc(-n4cccn4)cc3Cl)sc2c1` [Example 116, 2-Chloro-N-[(6-methylsulfonylbenzothiazol-2-yl)carbamoyl]-4-pyrazol-1-yl-benzamide] are 36 nM, 45.1% and 400 nM.
With `CS(=O)(=O)c1ccc2nc(NC(=O)NC(=O)c3ccc(N4CCCC4)cc3Cl)sc2c1` [Example 117, 2-Chloro-N-[(6-methylsulfonylbenzothiazol-2-yl)carbamoyl]-4-pyrrolidin-1-yl-benzamide], in experiment [1], the IC50 was 37.8 nM. Also, in experiment [2], the Emax turned out to be 16.8% and the EC50 was 15.9 nM.
